Reference: US20030083374A1, “NAALADase inhibitors useful as pharmaceutical compounds and compositions” (priority 1998, published 2003)

Columns and labels:
rat MCAO model of stroke = test: in vivo assay on brain injury following MCAO; set-up: species or system Sprague-Dawley rats
Procedure: The control group received Hepes buffered saline.
Four drug treated groups received Compound 1. For each rat, the treatment was initiated at 60 minutes post middle cerebral artery occlusion (MCAO) by an IV bolus injection which was immediately followed by IV infusion for 4 hours at rate of 0.5 ml/hr. Group 1 (n=9) received a dose of 100 mg/kg IV bolus followed by 20 mg/kg/hr IV infusion for 4 hours. Group 2 (n=11) received a dose of 30 mg/kg IV bolus followed by 6 mg/kg/hr IV infusion for 4 hours. Group 3 (n=9) received a dose of 10 mg/kg IV bolus followed by 2 mg/kg/hr IV infusion for 4 hours. Group 3 rats were also treated at 120 minutes, 180 minutes and 360 minutes post-occlusion. Group 4 (n=8) received a dose of 3 mg/kg IV bolus followed by […] IV infusion for 4 hours.
Two additional drug treated groups received 2-(3-sulfanylpropyl)pentanedioic acid. For each rat, the treatment was initiated at 120 minutes post middle cerebral artery occlusion (MCAO) by an IV bolus injection which was immediately followed by IV infusion for 4 hours at rate of 0.5 ml/hr. Group 5 received a dose of 30 mg/kg IV bolus followed by 6 mg/kg/hr IV infusion for 4 hours. Group 6 received a dose of 10 mg/kg IV bolus followed by 2 mg/kg/hr IV infusion.
Twenty two hours following the reperfusion, the rats were euthanized and their brains were removed. Seven coronal sections (2 mm thick) were taken and stained with 1% solution of 2,3,5-triphenyl-tetraxolium chloride (TTC) for 20 minutes and then fixed in 10% formalin. The anterior and posterior surface of the most rostral brain section and the posterior surface of each of the remaining 6 sections were imaged. The quantification of infarct size of each brain was obtained using a computer aided-digital imaging analysis system (LOATS). The brain regions completely lacking TTC-staining were characterized as representative of infarcted tissue. The total infarct volume for each rat was calculated by numeric integration of the respective sequential brain areas.
Male Sprague-Dawley rats (260-320 g) were used. They were individually housed and allowed free access to food and water. Two days prior to the experiment, they were given restricted food if necessary to maintain the body weight Each rat received two surgeries: femoral vein cannulation for IV infusion and MCAO. During surgeries, the rat was anesthetized with 1.5% halothane delivered in oxygen via an inhalation mask. The body temperature was monitored and regulated at normothermic level using a homeothermic heating system. First, a catheter was inserted into the left femoral vein. Thirty minutes later, the rat was reanesthetized for MCAO surgery. The MCAO was achieved using the endovascular suture method described by Long et al., Stroke, Vol. 20, pp. 84-91 (1989). Specifically, the right external carotid artery (ECA) was exposed, coagulated and transected. A 3-0 monofilament nylon suture with a blunted tip and a coat of 0.05% Poly-1-Lysine was introduced into the proximal stump of the ECA via an arteriotomy. It was advanced 22 mm from the carotid bifurcation until it lodged in the proximal region of the anterior cerebral artery, thereby occluding the origin of the MCA. The rats were allowed to wake up; 2 hours later, the rats were reanesthetized for reperfusion, during which the nylon suture was retracted to the stump of the ECA allowing blood recirculation to the MCA.

PCP-treated rats = test: in vivo assay on schizophrenia (PCP model); details: 50 mg/kg i.p. before PCP (5 mg/kg)
Procedure: Rats treated with PCP develop symptoms, such as frantic running and incessant head-turning, that parallel psychotic symptoms in humans. Thus, to examine the effects of NAALADase inhibition on schizophrenia, rats were treated intraperitoneally with Compound 1 (50 mg/kg), Compound 2 (50 mg/kg) or a vehicle (H2O) before they received PCP (5 mg/kg). Head rolling scores were measured for over 2 hours following PCP injection.

O=C(O)CCC(CCS)C(=O)O (stereo not drawn) [Compound 1, 2-(2-sulfanylethyl)pentanedioic acid]
mean total brain infarct volume (rat MCAO model of stroke; Group 1: 100 mg/kg IV bolus + 20 mg/kg/hr IV infusion 4 hours, 60 minutes post MCAO): 123±31 mm^3 | mean total brain infarct volume (rat MCAO model of stroke; Group 2: 30 mg/kg IV bolus + 6 mg/kg/hr IV infusion 4 hours, 60 minutes post MCAO): 141±78 mm^3 | mean total brain infarct volume (rat MCAO model of stroke; Group 3: 10 mg/kg IV bolus + 2 mg/kg/hr IV infusion 4 hours, treated at 60 minutes post-occlusion): 152±32 mm^3 | mean total brain infarct volume (rat MCAO model of stroke; Group 4: 3 mg/kg IV bolus + 3 mg/kg/hr IV infusion 4 hours, 60 minutes post MCAO): 117±22 mm^3 | neuroprotection in rat MCAO model of stroke (rat MCAO model of stroke; administered 60, 120, 180 and 360 minutes post-occlusion): neuroprotective | % Protect (rat MCAO model of stroke; dose 1 mg/kg, 60 minutes post MCAO): 20% | % Protect (rat MCAO model of stroke; dose 3 mg/kg, 60 minutes post MCAO): 52% | % Protect (rat MCAO model of stroke; dose 10 mg/kg, 60 minutes post MCAO): 50% | % Protect (rat MCAO model of stroke; dose 10 mg/kg, 120 minutes post MCAO): 33% | % Protect (rat MCAO model of stroke; dose 10 mg/kg, 180 minutes post MCAO): 47% | % Protect (rat MCAO model of stroke; dose 10 mg/kg, 360 minutes post MCAO): 50% | % Protect (rat MCAO model of stroke; dose 30 mg/kg, 60 minutes post MCAO): 52% | % Protect (rat MCAO model of stroke; dose 100 mg/kg IV bolus, 60 minutes post MCAO): 44% | infarct size vs. vehicle treated rats (rat MCAO model of stroke; four Compound 1 treated groups): significantly smaller infarct size | locomotor-activating effects of PCP (head rolling scores) (PCP-treated rats): significantly reduced
